Reference: article PMC4672351, “Drug-Drug Interaction Potentials of Tyrosine Kinase Inhibitors via Inhibition of UDP-Glucuronosyltransferases” (Scientific Reports, 2015)
Several values for one entry are separate records, joined by “and”; a condition that tells them apart may be missing. Equal values may be shown once. Entries after “also recorded” stand apart in the source; their conditions may differ. Read-outs that look alike come from different tables or passages of the source.

Experiments:
[1] = clinical study; ref [16]; cited from earlier work
UGT1A7 [2] = target: T1, UGT1A7 (Homo sapiens, UniProt Q9HAW7); test: Inhibition of 4-MU glucuronidation by recombinant UGT1A7; conditions: for activity at 30 min, 100 µM: human, recombinant UGT1A7, pH 7.4, probe 4-MU
T1 sequence (Q9HAW7 26-530): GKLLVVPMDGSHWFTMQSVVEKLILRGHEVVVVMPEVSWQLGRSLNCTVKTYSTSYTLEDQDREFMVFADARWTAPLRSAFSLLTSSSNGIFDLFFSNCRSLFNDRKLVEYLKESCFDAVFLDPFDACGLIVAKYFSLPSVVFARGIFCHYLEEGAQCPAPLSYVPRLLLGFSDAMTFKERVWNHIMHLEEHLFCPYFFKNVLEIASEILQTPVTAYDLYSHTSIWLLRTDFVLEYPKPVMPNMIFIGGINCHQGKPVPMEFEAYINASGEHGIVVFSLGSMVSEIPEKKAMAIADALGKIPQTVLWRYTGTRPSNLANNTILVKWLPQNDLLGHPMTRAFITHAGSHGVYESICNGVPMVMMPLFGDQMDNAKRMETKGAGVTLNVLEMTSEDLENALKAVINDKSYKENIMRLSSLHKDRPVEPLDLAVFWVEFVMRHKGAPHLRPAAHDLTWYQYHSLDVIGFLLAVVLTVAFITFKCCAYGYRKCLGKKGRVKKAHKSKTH

[3] = Estimation of in vivo TKI concentrations after repeated oral administration; parameters: species or system human; conditions: calculated from literature PK parameters
UGT1A6 = target: T2, UGT1A6 (Homo sapiens, UniProt P19224); test: Inhibition of 4-MU glucuronidation by recombinant UGT1A6; assay type: in vitro ADME; conditions: recombinant UGT1A6, pH 7.4, probe 4-MU, 100 μM inhibitor, 4-MU substrate, positive control diclofenac, read-out: Remaining activities (%) of UGT1A6
T2 construct: purchased BD Gentest (Woburn, MA); host or cells: baculovirus-infected insect cells
T2 sequence (P19224 27-532): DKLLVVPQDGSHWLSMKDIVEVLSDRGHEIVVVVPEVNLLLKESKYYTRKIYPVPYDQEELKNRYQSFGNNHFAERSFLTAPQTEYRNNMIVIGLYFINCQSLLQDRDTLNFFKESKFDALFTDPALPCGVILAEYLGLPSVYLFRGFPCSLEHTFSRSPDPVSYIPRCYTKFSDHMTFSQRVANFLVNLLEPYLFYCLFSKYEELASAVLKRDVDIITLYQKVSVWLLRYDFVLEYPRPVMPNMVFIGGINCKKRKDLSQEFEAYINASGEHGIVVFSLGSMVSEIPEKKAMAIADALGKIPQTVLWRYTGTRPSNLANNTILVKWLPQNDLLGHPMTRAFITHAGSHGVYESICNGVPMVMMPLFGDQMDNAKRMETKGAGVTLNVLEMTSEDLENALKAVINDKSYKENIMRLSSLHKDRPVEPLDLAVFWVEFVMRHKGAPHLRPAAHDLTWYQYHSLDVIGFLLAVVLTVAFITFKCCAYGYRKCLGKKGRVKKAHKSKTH

UGT1A1 [4] = target: T3, UGT1A1 (Homo sapiens, UniProt P22309); test: Inhibition of 4-MU glucuronidation by recombinant UGT1A1; conditions: for activity at 120 min, 100 µM: human, recombinant UGT1A1, pH 7.4, probe 4-MU
T3 sequence (P22309 26-533): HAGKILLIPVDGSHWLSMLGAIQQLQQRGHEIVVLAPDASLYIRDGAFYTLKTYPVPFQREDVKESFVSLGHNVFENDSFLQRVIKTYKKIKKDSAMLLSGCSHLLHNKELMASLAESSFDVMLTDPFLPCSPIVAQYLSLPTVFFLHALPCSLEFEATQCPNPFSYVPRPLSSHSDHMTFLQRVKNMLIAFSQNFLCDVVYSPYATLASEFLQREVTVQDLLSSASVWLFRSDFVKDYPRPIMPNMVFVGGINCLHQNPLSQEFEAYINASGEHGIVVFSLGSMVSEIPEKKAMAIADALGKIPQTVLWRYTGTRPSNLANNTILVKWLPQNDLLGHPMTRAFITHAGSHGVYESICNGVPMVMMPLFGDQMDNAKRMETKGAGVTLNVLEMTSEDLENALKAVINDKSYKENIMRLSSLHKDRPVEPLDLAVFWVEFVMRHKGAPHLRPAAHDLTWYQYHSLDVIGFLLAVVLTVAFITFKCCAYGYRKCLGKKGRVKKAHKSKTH

UGT1A1 [5] = target: T3, UGT1A1; conditions: SN-38 substrate
Method: SN-38 glucuronidation activity was determined with a slight modification of a previously published method[13].

UGT1A7 [6] = target: T1, UGT1A7; test: Prediction of DDI risk (AUCi/AUC) from in vitro data, UGT1A7 substrates; parameters: purchased BD Gentest (Woburn, MA); host or cells: baculovirus-infected insect cells
UGT1A1 [7] = target: T3, UGT1A1; conditions: fm is 1; clinical doses
UGT1A9 [8] = target: T4, UGT1A9 (Homo sapiens, UniProt O60656); conditions: 4-MU substrate
T4 sequence (O60656 26-530): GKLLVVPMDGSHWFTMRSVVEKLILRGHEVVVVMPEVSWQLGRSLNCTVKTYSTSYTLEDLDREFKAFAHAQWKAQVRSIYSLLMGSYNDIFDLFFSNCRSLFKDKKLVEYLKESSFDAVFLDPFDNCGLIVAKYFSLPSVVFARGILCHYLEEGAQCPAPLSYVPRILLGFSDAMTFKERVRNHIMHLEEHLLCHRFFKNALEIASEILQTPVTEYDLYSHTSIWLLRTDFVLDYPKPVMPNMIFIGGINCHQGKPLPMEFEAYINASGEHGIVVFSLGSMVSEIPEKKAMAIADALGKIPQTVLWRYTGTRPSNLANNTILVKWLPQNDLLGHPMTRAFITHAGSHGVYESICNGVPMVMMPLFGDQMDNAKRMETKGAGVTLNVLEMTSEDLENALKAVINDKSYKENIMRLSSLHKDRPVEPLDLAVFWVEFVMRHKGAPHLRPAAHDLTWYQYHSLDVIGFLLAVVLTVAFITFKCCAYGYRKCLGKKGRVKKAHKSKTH

UGT1A9 [9] = target: T4, UGT1A9; test: biochemical
UGT1A9 [10] = target: T4, UGT1A9

| Compound | Increase in the AUC of SN-38 on co-administration with irinotecan [1] | inhibition type, UGT1A7 (UGT1A7 [2]; 4-MU substrate) | activity at 30 min, 100 µM (UGT1A7 [2]) [%] | Calculated Concentrations Iav (average systemic plasma concentration) [3] [µM] | Calculated Concentrations Iin,u (maximum unbound hepatic input concentration) [3] [µM] | Calculated Concentrations Imax,u (maximum unbound systemic plasma concentration) [3] [µM] | activity at 30 min, 100 µM (UGT1A6) [%] | inhibition type, UGT1A1 (UGT1A1 [4]; 4-MU substrate) | activity at 120 min, 100 µM (UGT1A1 [4]) [%] | inhibition type, UGT1A1 (UGT1A1 [5]) | Predicted increase in the AUC of substrate by UGT1A7 inhibition (UGT1A7 [6]; fm not given, Imax,u used) [%] | Predicted increase in AUC of UGT1A1 substrates (4-MU and SN-38) (UGT1A1 [7]) | IC50 (UGT1A7 [2]) [µM] | inhibition type, UGT1A9 (UGT1A9 [8]) | IC50 (UGT1A9 [9]) [µM] | Ki (UGT1A9 [9]) [µM] | Predicted increase in the AUC of substrate by UGT1A9 inhibition (UGT1A9 [10]; fm not given) | Predicted AUCi/AUC ratio of UGT1A9 substrates (UGT1A9 [10]; fm is 1) | Predicted AUCi/AUC ratio of UGT1A7 substrates (UGT1A7 [6]; fm is 1) |
| --- | --- | --- | --- | --- | --- | --- | --- | --- | --- | --- | --- | --- | --- | --- | --- | --- | --- | --- | --- |
| CS(=O)(=O)CCNCc1ccc(-c2ccc3ncnc(Nc4ccc(OCc5cccc(F)c5)c(Cl)c4)c3c2)o1 [Lapatinib, lapatinib] | 41% and ~ 40% | non-competitive; also recorded: noncompetitive | 37.7 ± 9.3 | 0.79 | 0.12 | 0.011 | 88.4 ± 5.9 | competitive | 30.8 ± 11 | non-competitive | ~1 | ~ 25% |  |  |  |  |  |  |  |
| COc1cc2c(Nc3ccc(Br)cc3F)ncnc2cc1OCC1CCN(C)CC1 [Vandetanib, vandetanib] |  |  | 22.7 ± 2.7 | 1.99 | 0.23 | 0.12 | 55.1 ± 1.1 |  | 48.9 ± 4.9 |  |  |  | 38.9 ± 4.3 | mixed | 5 ± 0.4 | 9 ± 1.2 | about 2% |  |  |
| CNC(=O)c1ccccc1Sc1ccc2c(/C=C/c3ccccn3)n[nH]c2c1 [Axitinib, axitinib] |  |  | 25 ± 2.5 | 0.024 | 0.00086 | 0.00067 | 85.8 ± 3.5 |  | 56.7 ± 3.4 |  |  |  | 3.3 ± 0.7 |  | 3.6 ± 0.7 |  |  | ~1 | ~1 |
